Source: article PMC7464788, “Modification and Targeted Design of N-Terminal Truncates Derived from Brevinin with Improved Therapeutic Efficacy” (Biology, 2020)
≈ marks a conversion by molar mass, not a printed value. Where “and” joins values, the source holds several entries; their conditions need not be identical. Equal entries are not always repeated. Positions of bridges follow the written chain, without caps; N, C: chain ends. Residues, ends and D or L forms follow the SMILES beside them.

Assays:
[1] = system: Candida albicans (NCYC1467); type: cell-based
Description: (§1) The antimicrobial assay was carried out to detect the minimum inhibitory concentration (MIC) and the minimum bactericidal concentration (MBC) of each peptide on the microbes as described previously. Seven different microorganisms were used in the assay: Gram-positive bacteria Staphylococcus aureus (NCTC10788), Enterococcus faecalis (NCTC12697), and methicillin-resistant S. aureus (MRSA) (NCTC12493); Gram-negative bacteria Escherichia coli (NCTC10418), Pseudomonas aeruginosa (ATCC27853), and Klebsiella pneumoniae (ATCC 43816); and fungi Candida albicans (NCYC1467). Bacterial strains were inoculated and grown to mid-log phase in fresh Mueller Hinton broth (MHB) at 37 °C for overnight, then bacteria inoculum suspensions were subcultured until reaching the logarithmic growth phase by measuring OD of the cultures at wavelength 550 nm. Then, 99 µL bacteria and 1 µL peptide solution were mixed in the 96-wells microplate. For positive and negative controls, the bacteria were incubated with antibiotics (Norfloxacin for Gram-positive bacteria and Gram-negative bacteria; Amphotericin B for fungi) solution and MHB medium, respectively. Experiments were repeated five times in five replicates.

[2] = system: Enterococcus faecalis (NCTC12697); type: cell-based
Description: as §1

[3] = system: Escherichia coli (NCTC10418); type: cell-based
Description: as §1

[4] = system: Klebsiella pneumoniae (ATCC 43816); type: cell-based
Description: as §1

[5] = system: Pseudomonas aeruginosa (ATCC27853); type: cell-based
Description: as §1

[6] = system: Staphylococcus aureus (NCTC10788); type: cell-based
Description: as §1

[7] = system: methicillin-resistant S. aureus (MRSA) (NCTC12493); type: cell-based, Staphylococcus aureus
Description: as §1

[8] = system: horse erythrocytes; test: Haemolytic assay; type: cell-based; settings: 2% (v/v) horse red blood cells, 37 °C, 2 h; 1% Triton-X 100 positive control; three times in five replicates
Description: The haemolytic assay was carried out to detect the cytotoxicity of each peptide to erythrocytes obtained from fresh defibrinated horse blood as described before. An appropriate volume of horse blood solution was collected via washing and transferring until the supernatant was clear. Then, 2% (v/v) suspension of red blood cells were incubated with peptide at 37 °C for 2 h. For positive and negative controls, the red blood cells were incubated with 1% (v/v) Triton-X 100 and Phosphate-buffered saline (PBS) solution, respectively. The 10% of maximal haemolysis concentration (HC10, μM) was utilised to assess the haemolytic potential. Experiments were repeated three times in five replicates.

| MIC C. albicans [1] | MIC E. faecalis [2] | MIC E. coli [3] | MIC K. pneumoniae [4] | MIC P. aeruginosa [5] | MIC MRSA [7] | Compound | MBC C. albicans [1] | MBC E. faecalis [2] | MBC E. coli [3] | MBC K. pneumoniae [4] | MBC P. aeruginosa [5] | MBC S. aureus [6] | MBC MRSA [7] | HC10 (concentration causing 10% red cell lysis) [8] |
| --- | --- | --- | --- | --- | --- | --- | --- | --- | --- | --- | --- | --- | --- | --- |
| 32 µM (≈ 56.5 µg/mL) | 512 µM (≈ 904 µg/mL) | 16 µM (≈ 28.3 µg/mL) | 128 µM (≈ 226 µg/mL) | 256 µM (≈ 452 µg/mL) | 16 µM (≈ 28.3 µg/mL) | CC[C@H](C)[C@@H]1NC(=O)[C@H](C)NC(=O)[C@@H](NC(=O)[C@H](Cc2ccccc2)NC(=O)[C@@H](NC(=O)[C@H](CCCCN)NC(=O)[C@@H]2CCCN2C(=O)[C@H](CC(C)C)NC(=O)[C@H](Cc2ccccc2)NC(=O)[C@H](CCCCN)NC(=O)[C@@H](N)CCCCN)[C@@H](C)CC)CSSC[C@@H](C(=O)O)NC(=O)[C@H](CCCCN)NC(=O)[C@H](CCCCN)NC(=O)[C@H]([C@@H](C)O)NC1=O [KKB2] (H-KKFLPKIFCAITKKC-OH; disulfide 9-15) | 64 µM (≈ 113 µg/mL) | 512 µM (≈ 904 µg/mL) | 32 µM (≈ 56.5 µg/mL) | 256 µM (≈ 452 µg/mL) | > 512 µM | 64 µM (≈ 113 µg/mL) | 64 µM (≈ 113 µg/mL) | 207 µM |
| 8 µM (≈ 15.6 µg/mL) | 256 µM (≈ 500 µg/mL) | 16 µM (≈ 31.2 µg/mL) | 32 µM (≈ 62.5 µg/mL) | 64 µM (≈ 125 µg/mL) | 8 µM (≈ 15.6 µg/mL) | CC[C@H](C)[C@@H]1NC(=O)[C@H](C)NC(=O)[C@@H](NC(=O)[C@H](Cc2ccccc2)NC(=O)[C@@H](NC(=O)[C@H](CCCCN)NC(=O)[C@H](Cc2c[nH]c3ccccc23)NC(=O)[C@@H]2CCCN2C(=O)[C@H](CC(C)C)NC(=O)[C@H](Cc2ccccc2)NC(=O)[C@H](CCCCN)NC(=O)[C@@H](N)CCCCN)[C@@H](C)CC)CSSC[C@@H](C(=O)O)NC(=O)[C@H](CCCCN)NC(=O)[C@H](CCCCN)NC(=O)[C@H]([C@@H](C)O)NC1=O [KKWB2] (H-KKFLPWKIFCAITKKC-OH; disulfide 10-16) | 32 µM (≈ 62.5 µg/mL) | 512 µM (≈ 1000 µg/mL) | 32 µM (≈ 62.5 µg/mL) | 32 µM (≈ 62.5 µg/mL) | 64 µM (≈ 125 µg/mL) | 16 µM (≈ 31.2 µg/mL) | 32 µM (≈ 62.5 µg/mL) | 140.04 µM |
| 128 µM (≈ 210 µg/mL) | 512 µM (≈ 839 µg/mL) |  | 256 µM (≈ 419 µg/mL) | 512 µM (≈ 839 µg/mL) | 16 µM (≈ 26.2 µg/mL) | CC[C@H](C)[C@@H]1NC(=O)[C@H](C)NC(=O)[C@@H](NC(=O)[C@H](Cc2ccccc2)NC(=O)[C@@H](NC(=O)[C@H](CCCCN)NC(=O)[C@@H]2CCCN2C(=O)[C@H](CC(C)C)NC(=O)[C@H](Cc2ccccc2)NC(=O)[C@@H](N)CCCCN)[C@@H](C)CC)CSSC[C@@H](C(=O)O)NC(=O)[C@H](CCCCN)NC(=O)[C@H](CCCCN)NC(=O)[C@H]([C@@H](C)O)NC1=O [KB2] (H-KFLPKIFCAITKKC-OH; disulfide 8-14) | 512 µM (≈ 839 µg/mL) | > 512 µM |  | 256 µM (≈ 419 µg/mL) | > 512 µM |  | 128 µM (≈ 210 µg/mL) | 154 µM |

The next lines start with the compound.

| Compound | MIC C. albicans [1] | MIC E. faecalis [2] | MIC E. coli [3] | MIC K. pneumoniae [4] | MIC P. aeruginosa [5] | MIC MRSA [7] | MBC C. albicans [1] | MBC E. faecalis [2] | MBC E. coli [3] | MBC K. pneumoniae [4] | MBC P. aeruginosa [5] | MBC S. aureus [6] | MBC MRSA [7] | HC10 (concentration causing 10% red cell lysis) [8] |
| --- | --- | --- | --- | --- | --- | --- | --- | --- | --- | --- | --- | --- | --- | --- |
| CC[C@H](C)[C@@H]1NC(=O)[C@H](C)NC(=O)[C@@H](NC(=O)[C@H](Cc2ccccc2)NC(=O)[C@@H](NC(=O)[C@H](CCCCN)NC(=O)[C@@H]2CCCN2C(=O)[C@H](CC(C)C)NC(=O)[C@H](Cc2ccccc2)NC(=O)[C@H](CCCCN)NC(=O)[C@H](C)NC(=O)[C@H](C)NC(=O)[C@H](CC(C)C)NC(=O)CNC(=O)[C@H](C)NC(=O)[C@@H](NC(=O)[C@H](CC(C)C)NC(=O)[C@@H]2CCCN2C(=O)[C@H](CC(C)C)NC(=O)[C@@H](N)Cc2ccccc2)[C@@H](C)CC)[C@@H](C)CC)CSSC[C@@H](C(=O)O)NC(=O)[C@H](CCCCN)NC(=O)[C@H](CCCCN)NC(=O)[C@H]([C@@H](C)O)NC1=O [Peptide B1A] (H-FLPLIAGLAAKFLPKIFCAITKKC-OH; disulfide 18-24) | 4 µM (≈ 10.4 µg/mL) | 8 µM (≈ 20.8 µg/mL) | 8 µM (≈ 20.8 µg/mL) | 16 µM (≈ 41.7 µg/mL) | 32 µM (≈ 83.4 µg/mL) | 16 µM (≈ 41.7 µg/mL) | 8 µM (≈ 20.8 µg/mL) | 32 µM (≈ 83.4 µg/mL) | 32 µM (≈ 83.4 µg/mL) | 16 µM (≈ 41.7 µg/mL) | 64 µM (≈ 167 µg/mL) | 8 µM (≈ 20.8 µg/mL) | 32 µM (≈ 83.4 µg/mL) | 1.576 µM |
| CC[C@H](C)[C@@H]1NC(=O)[C@H](C)NC(=O)[C@@H](NC(=O)[C@H](Cc2ccccc2)NC(=O)[C@@H](NC(=O)[C@H](CCCCN)NC(=O)[C@@H]2CCCN2C(=O)[C@H](CC(C)C)NC(=O)[C@@H](N)Cc2ccccc2)[C@@H](C)CC)CSSC[C@@H](C(=O)O)NC(=O)[C@H](CCCCN)NC(=O)[C@H](CCCCN)NC(=O)[C@H]([C@@H](C)O)NC1=O [Peptide B1A2] (H-FLPKIFCAITKKC-OH; disulfide 7-13) | 512 µM (≈ 773 µg/mL) | > 512 µM | 256 µM (≈ 387 µg/mL) | > 512 µM | > 512 µM | 256 µM (≈ 387 µg/mL) | 512 µM (≈ 773 µg/mL) | > 512 µM | 256 µM (≈ 387 µg/mL) | > 512 µM | > 512 µM | 256 µM (≈ 387 µg/mL) | > 512 µM | could not be calculated and >512 µM |
| CC[C@H](C)[C@@H]1NC(=O)[C@H](C)NC(=O)[C@@H](NC(=O)[C@H](Cc2ccccc2)NC(=O)[C@H](Cc2c[nH]c3ccccc23)NC(=O)[C@H](CCCCN)NC(=O)[C@H](Cc2c[nH]c3ccccc23)NC(=O)[C@@H]2CCCN2C(=O)[C@H](CC(C)C)NC(=O)[C@H](Cc2ccccc2)NC(=O)[C@@H](N)CCCCN)CSSC[C@@H](C(=O)O)NC(=O)[C@H](CCCCN)NC(=O)[C@H](CCCCN)NC(=O)[C@H]([C@@H](C)O)NC1=O [KW^5,7B2] (H-KFLPWKWFCAITKKC-OH; disulfide 9-15) | 16 µM (≈ 30.4 µg/mL) | 256 µM (≈ 486 µg/mL) | 16 µM (≈ 30.4 µg/mL) | 32 µM (≈ 60.7 µg/mL) | 64 µM (≈ 121 µg/mL) | 8 µM (≈ 15.2 µg/mL) | 32 µM (≈ 60.7 µg/mL) | 512 µM (≈ 971 µg/mL) | 64 µM (≈ 121 µg/mL) | 64 µM (≈ 121 µg/mL) | 128 µM (≈ 243 µg/mL) | 16 µM (≈ 30.4 µg/mL) | 32 µM (≈ 60.7 µg/mL) | 58.42 µM |
| CC[C@H](C)[C@@H]1NC(=O)[C@H](C)NC(=O)[C@@H](NC(=O)[C@H](CCCCN)NC(=O)[C@H](C)NC(=O)[C@H](C)NC(=O)[C@H](CC(C)C)NC(=O)CNC(=O)[C@H](C)NC(=O)[C@@H](NC(=O)[C@H](CC(C)C)NC(=O)[C@@H]2CCCN2C(=O)[C@H](CC(C)C)NC(=O)[C@@H](N)Cc2ccccc2)[C@@H](C)CC)CSSC[C@@H](C(=O)O)NC(=O)[C@H](CCCCN)NC(=O)[C@H](CCCCN)NC(=O)[C@H]([C@@H](C)O)NC1=O [Peptide B1A1] (H-FLPLIAGLAAKCAITKKC-OH; disulfide 12-18) | 512 µM (≈ 952 µg/mL) | > 512 µM | 512 µM (≈ 952 µg/mL) | > 512 µM | > 512 µM | > 512 µM | 512 µM (≈ 952 µg/mL) | > 512 µM | > 512 µM | > 512 µM | > 512 µM | > 512 µM | > 512 µM | could not be calculated and >512 µM |
| CC[C@H](C)[C@@H]1NC(=O)[C@H](C)NC(=O)[C@@H](NC(=O)[C@H](Cc2ccccc2)NC(=O)[C@@H](NC(=O)[C@H](CCCCN)NC(=O)[C@H](Cc2c[nH]c3ccccc23)NC(=O)[C@@H]2CCCN2C(=O)[C@H](Cc2c[nH]c3ccccc23)NC(=O)[C@H](Cc2ccccc2)NC(=O)[C@@H](N)CCCCN)[C@@H](C)CC)CSSC[C@@H](C(=O)O)NC(=O)[C@H](CCCCN)NC(=O)[C@H](CCCCN)NC(=O)[C@H]([C@@H](C)O)NC1=O [KW^3,5B2] (H-KFWPWKIFCAITKKC-OH; disulfide 9-15) | 8 µM (≈ 15.2 µg/mL) | 256 µM (≈ 486 µg/mL) | 16 µM (≈ 30.4 µg/mL) | 32 µM (≈ 60.7 µg/mL) | 64 µM (≈ 121 µg/mL) | 8 µM (≈ 15.2 µg/mL) | 32 µM (≈ 60.7 µg/mL) | 256 µM (≈ 486 µg/mL) | 32 µM (≈ 60.7 µg/mL) | 64 µM (≈ 121 µg/mL) | 128 µM (≈ 243 µg/mL) | 16 µM (≈ 30.4 µg/mL) | 32 µM (≈ 60.7 µg/mL) | 32.07 µM |
